Legend:
Experiment in all cases: fitness (endpoint OD595 vs no drug) (fraction); higher = more growth
S. aureus DSM 20231 = tested on: S. aureus DSM 20231
Summary of the method: (§1)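 Cultures at OD595 0.01 were dispensed into 384-well plates in TSB, LB Lennox or CY and incubated at 37 °C. Every 30 min for 14 h, OD595 was read and corrected by the first reading. Fitness is the optical density at entry into stationary phase relative to the robust mean of no-drug control wells, capped at 1.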

S. pneumoniae D39V = tested on: S. pneumoniae D39V
Summary of the method: as §1

S. aureus Newman = tested on: S. aureus Newman
Summary of the method: as §1

B. subtilis 168 = tested on: B. subtilis 168
Summary of the method: as §1

CCC[C@@H]1C[C@@H](C(=O)N[C@@H]([C@H]2O[C@H](SC)[C@H](O)[C@@H](O)[C@H]2O)[C@H](C)Cl)N(C)C1 [Clindamycin] + CO/N=C(\C(=O)N[C@@H]1C(=O)N2C(C(=O)[O-])=C(C[N+]3(C)CCCC3)CS[C@H]12)c1csc(N)n1 [Cefepime]
Conditions | fitness
S. aureus DSM 20231, first compound 0.125 µg/mL, partner 0.125 µg/mL | 0.0728
S. aureus DSM 20231, first compound 0.125 µg/mL, partner 0.25 µg/mL | 0.0809
S. aureus DSM 20231, first compound 0.125 µg/mL, partner 0.5 µg/mL | 0.0837
S. aureus Newman, first compound 0.0312 µg/mL, partner 0.125 µg/mL | 0.781
S. aureus Newman, first compound 0.0312 µg/mL, partner 0.25 µg/mL | 0.713
S. aureus Newman, first compound 0.0312 µg/mL, partner 0.5 µg/mL | 0.601
S. aureus Newman, first compound 0.125 µg/mL, partner 0.125 µg/mL | 0.187
S. aureus Newman, first compound 0.125 µg/mL, partner 0.25 µg/mL | 0.158
S. aureus Newman, first compound 0.125 µg/mL, partner 0.5 µg/mL | 0.151
S. pneumoniae D39V, first compound 0.0125 µg/mL, partner 0.0078 µg/mL | 0.809
S. pneumoniae D39V, first compound 0.0125 µg/mL, partner 0.0155 µg/mL | 0.818
S. pneumoniae D39V, first compound 0.0125 µg/mL, partner 0.031 µg/mL | 0.802
S. pneumoniae D39V, first compound 0.015 µg/mL, partner 0.007 µg/mL | 0.914
S. pneumoniae D39V, first compound 0.015 µg/mL, partner 0.014 µg/mL | 0.937
S. pneumoniae D39V, first compound 0.015 µg/mL, partner 0.028 µg/mL | 0.841
S. pneumoniae D39V, first compound 0.025 µg/mL, partner 0.0078 µg/mL | 0.599
S. pneumoniae D39V, first compound 0.025 µg/mL, partner 0.0155 µg/mL | 0.57
S. pneumoniae D39V, first compound 0.025 µg/mL, partner 0.031 µg/mL | 0.523
S. pneumoniae D39V, first compound 0.03 µg/mL, partner 0.007 µg/mL | 0.771
S. pneumoniae D39V, first compound 0.03 µg/mL, partner 0.014 µg/mL | 0.789
S. pneumoniae D39V, first compound 0.03 µg/mL, partner 0.028 µg/mL | 0.696
S. pneumoniae D39V, first compound 0.05 µg/mL, partner 0.0078 µg/mL | 0.264
S. pneumoniae D39V, first compound 0.05 µg/mL, partner 0.0155 µg/mL | 0.255
S. pneumoniae D39V, first compound 0.05 µg/mL, partner 0.031 µg/mL | 0.241
S. pneumoniae D39V, first compound 0.06 µg/mL, partner 0.007 µg/mL | 0.408
S. pneumoniae D39V, first compound 0.06 µg/mL, partner 0.014 µg/mL | 0.411
S. pneumoniae D39V, first compound 0.06 µg/mL, partner 0.028 µg/mL | 0.365

CCC[C@@H]1C[C@@H](C(=O)N[C@@H]([C@H]2O[C@H](SC)[C@H](O)[C@@H](O)[C@H]2O)[C@H](C)Cl)N(C)C1 [Clindamycin] + CO[C@@]12[C@H](COC(N)=O)C3=C(C(=O)C(C)=C(N)C3=O)N1C[C@@H]1N[C@@H]12 [Mitomycin C]
Conditions | fitness
S. aureus DSM 20231, first compound 0.0312 µg/mL, partner 0.0312 µg/mL | 0.466
S. aureus DSM 20231, first compound 0.0312 µg/mL, partner 0.0625 µg/mL | 0.35
S. aureus DSM 20231, first compound 0.0625 µg/mL, partner 0.0156 µg/mL | 0.149
S. aureus DSM 20231, first compound 0.0625 µg/mL, partner 0.0312 µg/mL | 0.117
S. aureus DSM 20231, first compound 0.0625 µg/mL, partner 0.0625 µg/mL | 0.103
S. aureus DSM 20231, first compound 0.125 µg/mL, partner 0.0156 µg/mL | 0.0347
S. aureus DSM 20231, first compound 0.125 µg/mL, partner 0.0312 µg/mL | 0.0369
S. aureus DSM 20231, first compound 0.125 µg/mL, partner 0.0625 µg/mL | 0.083
S. aureus Newman, first compound 0.0312 µg/mL, partner 0.0156 µg/mL | 0.537
S. aureus Newman, first compound 0.0312 µg/mL, partner 0.0312 µg/mL | 0.483
S. aureus Newman, first compound 0.0312 µg/mL, partner 0.0625 µg/mL | 0.412
S. aureus Newman, first compound 0.0625 µg/mL, partner 0.0156 µg/mL | 0.421
S. aureus Newman, first compound 0.0625 µg/mL, partner 0.0312 µg/mL | 0.355
S. aureus Newman, first compound 0.0625 µg/mL, partner 0.0625 µg/mL | 0.243
S. aureus Newman, first compound 0.125 µg/mL, partner 0.0156 µg/mL | 0.138
S. aureus Newman, first compound 0.125 µg/mL, partner 0.0312 µg/mL | 0.163
S. aureus Newman, first compound 0.125 µg/mL, partner 0.0625 µg/mL | 0.0658
S. pneumoniae D39V, first compound 0.0125 µg/mL, partner 0.002 µg/mL | 0.651
S. pneumoniae D39V, first compound 0.0125 µg/mL, partner 0.004 µg/mL | 0.593
S. pneumoniae D39V, first compound 0.0125 µg/mL, partner 0.008 µg/mL | 0.495
S. pneumoniae D39V, first compound 0.015 µg/mL, partner 0.001075 µg/mL | 0.912
S. pneumoniae D39V, first compound 0.015 µg/mL, partner 0.00215 µg/mL | 0.889
S. pneumoniae D39V, first compound 0.015 µg/mL, partner 0.0043 µg/mL | 0.752
S. pneumoniae D39V, first compound 0.025 µg/mL, partner 0.002 µg/mL | 0.36
S. pneumoniae D39V, first compound 0.025 µg/mL, partner 0.004 µg/mL | 0.328
S. pneumoniae D39V, first compound 0.025 µg/mL, partner 0.008 µg/mL | 0.322
S. pneumoniae D39V, first compound 0.03 µg/mL, partner 0.001075 µg/mL | 0.708
S. pneumoniae D39V, first compound 0.03 µg/mL, partner 0.00215 µg/mL | 0.689
S. pneumoniae D39V, first compound 0.03 µg/mL, partner 0.0043 µg/mL | 0.57
S. pneumoniae D39V, first compound 0.05 µg/mL, partner 0.002 µg/mL | 0.187
S. pneumoniae D39V, first compound 0.05 µg/mL, partner 0.004 µg/mL | 0.144
S. pneumoniae D39V, first compound 0.05 µg/mL, partner 0.008 µg/mL | 0.155
S. pneumoniae D39V, first compound 0.06 µg/mL, partner 0.001075 µg/mL | 0.453
S. pneumoniae D39V, first compound 0.06 µg/mL, partner 0.00215 µg/mL | 0.396
S. pneumoniae D39V, first compound 0.06 µg/mL, partner 0.0043 µg/mL | 0.306

CCC[C@@H]1C[C@@H](C(=O)N[C@@H]([C@H]2O[C@H](SC)[C@H](O)[C@@H](O)[C@H]2O)[C@H](C)Cl)N(C)C1 [Clindamycin] + N[C@@H]1CONC1=O [Cycloserine D]
fitness
Conditions | partner 0.125 µg/mL | partner 0.25 µg/mL | partner 0.375 µg/mL | partner 0.5 µg/mL | partner 0.75 µg/mL | partner 1.5 µg/mL
B. subtilis 168, first compound 0.0625 µg/mL | 0.592 | 0.512 | – | 0.549 | – | –
B. subtilis 168, first compound 0.125 µg/mL | 0.413 | 0.365 | – | 0.363 | – | –
B. subtilis 168, first compound 0.25 µg/mL | 0.396 | 0.348 | – | 0.329 | – | –
S. aureus DSM 20231, first compound 0.0625 µg/mL | – | – | 0.0659 | – | 0.0748 | 0.0881
S. aureus DSM 20231, first compound 0.125 µg/mL | – | – | 0.0216 | – | 0.0398 | 0.0593
S. aureus Newman, first compound 0.0312 µg/mL | – | – | 0.732 | – | 0.735 | 0.746
S. aureus Newman, first compound 0.125 µg/mL | – | – | 0.0953 | – | 0.115 | 0.103

fitness, B. subtilis 168, one replicate
Conditions | first compound 0.0039 µg/mL | first compound 0.0078 µg/mL | first compound 0.0156 µg/mL
partner 0.125 µg/mL | 0.985 | 0.927 | 0.879
partner 0.25 µg/mL | 0.974 | 0.859 | 0.796
partner 0.5 µg/mL | ≥ 1 | 0.901 | 0.845
